{
  "source": "PubChem BioAssay AID1996",
  "data": [
    {"details": "buffer; pH 7.4; 200.0 µM", "units": {"solubility kinetic": "µg/mL"}, "values": [
      {"smiles": "OCC1(Cc2ccccc2F)CCCN(CCc2ccccc2)C1", "note": "(stereo unspecified)", "solubility kinetic": 40.7},
      {"smiles": "Cc1c(NC(=O)COC(=O)c2cccn2C)c(=O)n(-c2ccccc2)n1C", "solubility kinetic": "> 55.3"},
      {"smiles": "Cc1ccccc1OCC(=O)NC(C)c1ccccc1", "note": "(stereo unspecified)", "solubility kinetic": 39.8},
      {"smiles": "COc1ccc(NC(=S)N(CCO)Cc2ccccc2)cc1", "solubility kinetic": 44.7},
      {"smiles": "O=S(=O)(c1ccc(F)cc1)N1CCCCC1c1cccnc1", "note": "(stereo unspecified)", "solubility kinetic": "> 48.1"},
      {"smiles": "CCCCOc1c(Br)cc(CNCCCN2CCOCC2)cc1OC.Cl", "solubility kinetic": 60.9},
      {"smiles": "CCCc1nc2oc3ccccc3c(=O)c2c(=O)n1-c1ccc(C)cc1", "solubility kinetic": 39.8},
      {"smiles": "CN(c1cccc2cccnc12)S(=O)(=O)c1ccccc1", "solubility kinetic": 40.7},
      {"smiles": "Cc1cc(C)c2sc(C)[n+](CCCS(=O)(=O)[O-])c2c1", "solubility kinetic": 38.8},
      {"smiles": "Cc1cccc(NC(=S)Nc2cccc3ccccc23)c1", "solubility kinetic": 3.8},
      {"smiles": "Cc1cccc(NC(=O)c2cc(C)nc3ccccc23)c1", "solubility kinetic": 0.7},
      {"smiles": "O=C(NC1C2CC3CC(C2)CC1C3)c1ccc(Br)o1", "note": "(stereo unspecified)", "solubility kinetic": 27.8},
      {"smiles": "COc1cc2c(cc1OC)CN(C(=O)/C=C/c1cccs1)CC2", "solubility kinetic": "> 49.4"},
      {"smiles": "N#Cc1c(-c2ccc3c(c2)OCO3)cc[nH]c1=O", "solubility kinetic": 2.3},
      {"smiles": "CCN1CCC(NCC2CCCCC2)CC1", "solubility kinetic": 23.2},
      {"smiles": "O=C(CNC(=O)C1CCCCC1)Nc1ccc(F)c(Cl)c1", "solubility kinetic": 8.2},
      {"smiles": "O=C(COc1ncnc2sccc12)NC1CCCCC1", "solubility kinetic": "> 43.7"},
      {"smiles": "CC1(C)CC(NC(=O)c2cccc(F)c2)CC(C)(C)N1", "solubility kinetic": 40.8},
      {"smiles": "Cc1ccccc1Cn1cnc2c(oc3ccccc32)c1=O", "solubility kinetic": 0.9},
      {"smiles": "S=C(NCc1ccc(Cl)cc1)NCc1ccccn1", "solubility kinetic": 35.1},
      {"smiles": "Cc1ccc(N2C(=O)CC3(CCCC3)CC2=O)cc1", "solubility kinetic": 34.3},
      {"smiles": "CC12CN3CCN(CC(C3)/C1=N\\NC(=O)Nc1cccc(Cl)c1)C2", "solubility kinetic": "> 52.2"},
      {"smiles": "O=S(=O)(c1ccc(Cl)cc1)N1CCc2ccccc21", "solubility kinetic": 6.1},
      {"smiles": "CN(Cc1ccccc1)C(=O)COC(=O)c1cc(=O)[nH]c2ccccc12", "solubility kinetic": 34.4},
      {"smiles": "CC(=O)N1CCc2ccc(S(=O)(=O)N3CCc4ccccc43)cc21", "solubility kinetic": 0.5},
      {"smiles": "NC(=O)c1cccc2ccccc12", "solubility kinetic": "> 25.7"},
      {"smiles": "O=C(NC(=S)NCc1cccnc1)c1cc(Br)ccc1Cl", "solubility kinetic": 0.9},
      {"smiles": "O=C(COc1ccc(F)cc1F)N1CCCCCCC1", "solubility kinetic": "> 42.5"},
      {"smiles": "CSc1ncc(C(=O)Nc2ccc(C(C)=O)cc2)c(C)n1", "solubility kinetic": "> 45.2"},
      {"smiles": "O=C(CSc1ccccn1)Nc1cccc2ccccc12", "solubility kinetic": 29.5},
      {"smiles": "COc1ccc(C(=O)Nc2cc(-c3ccc(C)cc3)no2)cc1", "solubility kinetic": "< 0.3"},
      {"smiles": "Cc1cc(C)c[n+](C(C)C(=O)c2ccc(Cl)cc2)c1.[Br-]", "note": "(stereo unspecified)", "solubility kinetic": "> 53.2"},
      {"smiles": "CN(C(=O)CSc1nc2ccccc2c(=O)n1-c1ccccc1Cl)C1CCS(=O)(=O)C1", "note": "(stereo unspecified)", "solubility kinetic": 71.1},
      {"smiles": "O=S(=O)(Cc1ccc(Cl)cc1)NCc1cccnc1", "solubility kinetic": "> 44.5"},
      {"smiles": "CC(=O)N/C(=N/c1nc(C)cc(C)n1)Nc1cccc(C)c1", "solubility kinetic": 22.2},
      {"smiles": "Cl.O=C(COc1ccc(Br)cc1)OCCN1CCCCC1", "solubility kinetic": "> 56.8"},
      {"smiles": "CC(C)(C)N1CC(C(=O)Nc2cccc(Cl)c2Cl)CC1=O", "note": "(stereo unspecified)", "solubility kinetic": "> 49.4"},
      {"smiles": "O=C(Oc1cc(Cl)cc(Cl)c1)c1cnc2n(c1=O)CCS2", "solubility kinetic": 43.9},
      {"smiles": "O=C(NCc1ccc(F)cc1)C(c1ccccc1)c1ccccc1", "solubility kinetic": "< 0.7"},
      {"smiles": "CC1C(=O)Nc2ccccc2N1C(=O)c1ccc(Cl)cc1", "note": "(stereo unspecified)", "solubility kinetic": 27.4},
      {"smiles": "NC(=O)c1sc2nc3c(cc2c1N)CCCCCC3", "solubility kinetic": 22.3},
      {"smiles": "CCC1C(=NO)C(CC)C(c2ccccc2)NC1c1ccccc1", "note": "(stereo unspecified)", "solubility kinetic": 0.9},
      {"smiles": "CCCN1C(=O)N(c2cccc(C)c2)C(C)(O)CC1(C)C", "note": "(stereo unspecified)", "solubility kinetic": "> 43.6"},
      {"smiles": "CC(C)(C)Nc1nc(-c2ccc3c(c2)CCN3C(=O)C2CC2)cs1", "solubility kinetic": 5.4},
      {"smiles": "CC(=O)Nc1ccc(NC2=CC(=O)c3ccccc3C2=O)cc1", "solubility kinetic": 1.1},
      {"smiles": "O=C1CC(c2ccccc2)CC(=O)C1=CN1CCCC1", "note": "(stereo unspecified)", "solubility kinetic": "> 40.4"},
      {"smiles": "O=C1N=C(N2CCOCC2)S/C1=C\\c1cccnc1", "solubility kinetic": "> 41.3"},
      {"smiles": "Nc1ncnc2c1ncn2[C@@H]1O[C@H](CO)[C@@H](O)[C@@H]1O", "solubility kinetic": "> 40.1"},
      {"smiles": "COc1ccc(C(=O)O/N=C(\\N)c2ccccc2)cc1OC", "solubility kinetic": 23.8},
      {"smiles": "CN(C)CCC(=O)C(Cc1ccccc1)c1ccccc1.Cl", "note": "(stereo unspecified)", "solubility kinetic": 44.7},
      {"smiles": "C[N+](C)(C)C[C@H](O)CC(=O)O.[Cl-]", "solubility kinetic": "> 29.6"},
      {"smiles": "COc1ccc(C(=O)NC2=Nc3ccccc3N=C(C)C2c2ccccc2)cc1", "note": "(stereo unspecified)", "solubility kinetic": 22.6},
      {"smiles": "COc1cccc(N/C(N)=N/c2nc(C)cc(=O)[nH]2)c1", "solubility kinetic": 40.6},
      {"smiles": "O=S1(=O)N=C(Nc2ccc(O)cc2)c2ccccc21", "solubility kinetic": 11},
      {"smiles": "CCOc1ccccc1NC(=O)C(NC(=O)C1CCC(C)CC1)C(C)C", "note": "(stereo unspecified)", "solubility kinetic": 4.9},
      {"smiles": "Cc1csc(SCC(=O)Nc2ccc3[nH]c(=O)[nH]c3c2)n1", "solubility kinetic": "> 48.1"},
      {"smiles": "Cn1c(C(=O)N[C@@H](C(=O)O)c2ccccc2)cc2cc(F)ccc21", "solubility kinetic": 45.4},
      {"smiles": "COc1ccc(CNC2CC(C)N(C)CC2C)cc1OC.Cl", "note": "(stereo unspecified)", "solubility kinetic": 50.9},
      {"smiles": "CC(=O)c1ccc(C(=O)N2CCCC(Nc3ccccc3)C2)s1", "note": "(stereo unspecified)", "solubility kinetic": 41.2},
      {"smiles": "Cc1cccc(NC(=O)COC(=O)[C@@H]2CCCN2C(=O)c2cccs2)c1", "solubility kinetic": 2.8},
      {"smiles": "COc1ccc(S(=O)(=O)N2CCOCC2)cc1NC(=O)Cc1ccsc1", "solubility kinetic": 7.6},
      {"smiles": "Nc1ncnc2c1nc(Br)n2[C@@H]1O[C@@H]2COP(=O)([O-])O[C@H]2[C@H]1O.[Na+]", "solubility kinetic": "> 64.5"},
      {"smiles": "C=CCN1C(=O)C(=O)N(CC(=O)NCC(=O)Nc2ccc(F)c(F)c2F)C1=O", "solubility kinetic": "> 59.7"},
      {"smiles": "C=CCNC(=S)N1CCC(C(=O)c2ccc(Cl)cc2)CC1", "solubility kinetic": 43.5},
      {"smiles": "CCOc1ccc(C(=O)OCC(=O)N2CCCC2)cc1OCC", "solubility kinetic": 38.3},
      {"smiles": "NNC(=O)Cn1c(-c2ccccc2)cc2ccccc21", "solubility kinetic": "> 39.8"},
      {"smiles": "CC1=C(C)CC(C(=O)NCc2ccccc2F)C(C(=O)O)C1", "note": "(stereo unspecified)", "solubility kinetic": "> 45.8"},
      {"smiles": "COc1ccc(CCC(C)NC2CCCCCCC2)cc1", "note": "(stereo unspecified)", "solubility kinetic": 41.8},
      {"smiles": "Cc1ccc(NCCC(=O)c2cccc([N+](=O)[O-])c2)c(C)c1", "solubility kinetic": 1.7},
      {"smiles": "O=C(NCc1ccccc1Cl)c1ccc[nH]1", "solubility kinetic": 31.5},
      {"smiles": "COc1ccccc1C(=O)Nc1ccncc1", "solubility kinetic": 33.4},
      {"smiles": "Cc1ccc(C)c(NC(=S)N(CCc2ccncc2)C(C)C)c1", "solubility kinetic": "> 49.1"},
      {"smiles": "O=S(=O)(NCc1c(Cl)cccc1Oc1ccccc1)c1ccccc1", "solubility kinetic": 3},
      {"smiles": "Cc1c2n(c3ccccc13)CC/C2=N\\O", "solubility kinetic": 4.9},
      {"smiles": "COCc1ccc(C(=O)NC2CCSc3ccccc32)cc1", "note": "(stereo unspecified)", "solubility kinetic": 16.8},
      {"smiles": "Cc1cc(C(=O)NCc2cc(C(=O)O)co2)co1", "solubility kinetic": "> 37.4"},
      {"smiles": "COc1cc2c(cc1OC)CN(C(=O)/C=C/c1ccc(F)cc1)CC2", "solubility kinetic": 46.9},
      {"smiles": "CCNC(=O)Nc1ccc(S(=O)(=O)Nc2cnc(C)nc2C)cc1", "solubility kinetic": "> 52.4"},
      {"smiles": "O=C(NCC(=O)N1CCN(c2ccccc2)CC1)c1ccccc1", "solubility kinetic": "> 48.5"},
      {"smiles": "CC1(c2ccc3ccccc3c2)NC(=O)N(CC(=O)O)C1=O", "note": "(stereo unspecified)", "solubility kinetic": "> 44.7"},
      {"smiles": "CCOc1ccc(C(=O)NC2CCCCCCC2)cc1", "solubility kinetic": 2.5},
      {"smiles": "COn1c(C)c(C)c2c3nonc3ccc21", "solubility kinetic": 8.9},
      {"smiles": "O=C(c1ccccc1F)N1CCN=C1c1ccccc1", "solubility kinetic": 36.2},
      {"smiles": "O=C(C1CCCCC1)N1CCc2[nH]c3ccc(F)cc3c2C1", "solubility kinetic": 0.4},
      {"smiles": "O=C(COC(=O)c1cc(Cl)cc(Cl)c1)NCc1ccco1", "solubility kinetic": 28.4},
      {"smiles": "CCCc1cc(=O)[nH]c(SCC(=O)Nc2ccc3ccccc3c2)n1", "solubility kinetic": 2.6}
    ]}
  ]
}
